Five compounds from paper PMC12014842, “An ^211At-labeled alpha-melanocyte stimulating hormone peptide analog for targeted alpha therapy of metastatic melanoma” (European Journal of Nuclear Medicine and Molecular Imaging, 2025) can be followed below.

In data set [1] the target is T1, MC1R (B16F10 melanoma cells) (Mus musculus, UniProt Q01727).
T1 construct: endogenous in cells; host or cells: B16F10 melanoma cells (Cell Resource Center for Biomedical Research, Tohoku University)
The data set is described as follows: Receptor binding assay: competitive inhibition of [^125I]I-Tyr^2-NDP-MSH bound to B16F10 melanoma cells. The settings on record: competition with [^125I]I-Tyr^2-NDP-MSH, 37 °C, 1 h, brackets = 95% confidence interval. The procedure: B16F10 cells were obtained from the Cell Resource Center for Biomedical Research (Institute of Development, Aging and Cancer Tohoku University). B16F10 cells were cultivated in RPMI 1640 medium (Nacalai Tesque) supplemented with 10% fetal bovine serum (Thermo Scientific) in a humidified atmosphere containing 5% carbon dioxide at 37 °C. B16F10 cells (5 × 10^5 cells/well) were seeded in a 24-well poly-D-lysine coated plate (Corning) overnight. After the growth medium was removed, a reaction buffer containing 4.8 mg/mL HEPES, 100 U/mL penicillin, 1 mg/mL streptomycin and 2 mg/mL bovine serum albumin was added. Approximately 30,000 counts per minute of [^125I]I-Tyr^2-NDP-MSH and 0.5 pM to 5 µM of the peptides (NpG-GGN1a–NpG-GGN4a and In-DOTA-GGNle-CycMSHhex) were added to each well. The reaction mixture was incubated at 37 °C for 1 h. After incubation, the binding medium was removed, and the cells were rinsed twice with ice-cold phosphate-buffered saline (PBS). The cells were harvested using 0.25% trypsin solution, and the radioactivity was determined using an auto-well gamma counter. Ki values were calculated using GraphPad Prism 8.4.3 (GraphPad Software).

A short description of data set [2]: Log D7.4 measurements (1-octanol / phosphate buffer). The data set is classed as physicochemical. The settings on record: 1-octanol / 25 mM phosphate buffer pH 7.4; mean ± SD. The procedure: This experiment was performed according to a previously reported procedure with slight modifications. In brief, an aliquot of radiolabeled GGNle-CycMSHhex analogs (50 kBq/5 µL) was mixed with equal amounts (1.5 mL) of 1-octanol and 25 mM phosphate buffer (pH 7.4). The mixture was vortexed for 1 min and then allowed to stand for 1 min. After repeating the procedure five times, the mixture was centrifuged at 1,500 g for 10 min. Aliquots of 0.5 mL were taken from each phase and their radioactivity was measured with an auto-well γ counter (Wizard 3, PerkinElmer). The partition coefficient was determined by calculating the ratio of counts per minute in the 1-octanol phase to that in the buffer phase and expressed as a common logarithm. The results represent the mean ± SD for each compound.

Data set [3] is described as follows: Biodistribution in tumor-bearing mice. It is filed as in vivo. The settings on record: C57BL/6, mouse, iv, total radioactivity, 3 h after i.v. injection, Suppl. Table 1, mean ± SD, n = 4; for tissue uptake dose at 3 h: 7.4 kBq. On the procedure: The animal experiments were conducted according to a protocol reviewed and approved by the Chiba University Animal Care Committee (Permit No. 4–183). Five-week-old C57BL/6 mice were subcutaneously xenografted in their right hind legs by injecting B16F10 cells (1.0 × 10^6 cells) suspended in Matrigel (BD Biosciences). When the tumor diameter achieved approximately 10 mm, the mice were subjected to biodistribution studies. Groups of four mice were sacrificed at each postinjection time point. A solution of each radiohalogenated GGNle-CycMSHhex analog or [^111In]In-DOTA-GGNle-CycMSHhex (7.4 kBq/100 µL) was injected into the tumor-bearing mice via the tail vein, and the mice were sacrificed at 3 h postinjection. A solution of [^125I]NpG-GGN4b (7.4 kBq) or [^211At]NpG-GGN4c (40 or 100 kBq) was also injected, and the mice were sacrificed at […] postinjection. Injected radioactivity of [^211At]NpG-GGN4c was 40 kBq for 1 and 3 h postinjection groups and 100 kBq for 24 postinjection group. Blocking studies were performed by co-injection of NDP-MSH (10 µg per mouse) simultaneously with [^125I]NpG-GGN4b (7.4 kBq) or [^211At]NpG-GGN4c (40 kBq), and the mice were sacrificed at 3 h postinjection. The organs of interest were removed, weighed, and radioactivity was estimated using an auto-well gamma counter.

Where two headings read alike, the source gives them in different places. Positions of bridges follow the written chain, without caps; N, C: chain ends. Non-standard residues stand in square brackets, D forms with d. Residues, ends and D or L forms follow the SMILES beside them. *: point of attachment. DOTA = O=C(O)CN1CCN(CC(=O)O)CCN(CC(=O)*)CCN(CC(=O)O)CC1; X1 = O=C(Cn1cc(COCC(CO)(CO)CI)nn1)*; Nle = CCCC[C@H](N)C(=O)O

T1 sequence (Q01727 whole entry): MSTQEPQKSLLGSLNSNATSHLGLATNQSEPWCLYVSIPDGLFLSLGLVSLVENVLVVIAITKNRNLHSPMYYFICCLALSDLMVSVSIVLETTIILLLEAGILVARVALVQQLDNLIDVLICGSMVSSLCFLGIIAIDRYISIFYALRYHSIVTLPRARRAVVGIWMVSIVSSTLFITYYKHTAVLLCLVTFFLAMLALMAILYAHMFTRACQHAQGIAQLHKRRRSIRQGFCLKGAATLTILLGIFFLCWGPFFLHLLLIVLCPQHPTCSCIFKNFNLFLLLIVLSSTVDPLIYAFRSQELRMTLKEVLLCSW

As usually defined, the Ki is a measure of affinity in units of concentration, obtained from inhibition or displacement. As to `CCCC[C@H](NC(=O)CNC(=O)CNC(=O)[C@@H](CCC(=O)O)NC(=O)[C@@H](CCC(=O)O)NC(=O)Cn1cc(COCC(CO)(CO)CI)nn1)C(=O)N[C@H]1CC(=O)NCCCC[C@@H](C(N)=O)NC(=O)[C@H](Cc2c[nH]c3ccccc23)NC(=O)[C@H](CCCNC(=N)N)NC(=O)[C@@H](Cc2ccccc2)NC(=O)[C@H](Cc2c[nH]cn2)NC1=O` [NpG-GGN3a] (X1-[dE][dE]GG[Nle]DH[dF]RWK-NH2; lactam 6-11), the Ki in data set [1] amounted to 14.9 nM.

For `CCCC[C@H](NC(=O)CNC(=O)CNC(=O)[C@@H](CCC(=O)O)NC(=O)Cn1cc(COCC(CO)(CO)CI)nn1)C(=O)N[C@H]1CC(=O)NCCCC[C@@H](C(N)=O)NC(=O)[C@H](Cc2c[nH]c3ccccc23)NC(=O)[C@H](CCCNC(=N)N)NC(=O)[C@@H](Cc2ccccc2)NC(=O)[C@H](Cc2c[nH]cn2)NC1=O` [NpG-GGN2a] (X1-[dE]GG[Nle]DH[dF]RWK-NH2; lactam 5-10), the Ki in data set [1] came to 3.24 nM.

In data set [1], `CCCC[C@H](NC(=O)CNC(=O)CNC(=O)Cn1cc(COCC(CO)(CO)CI)nn1)C(=O)N[C@H]1CC(=O)NCCCC[C@@H](C(N)=O)NC(=O)[C@H](Cc2c[nH]c3ccccc23)NC(=O)[C@H](CCCNC(=N)N)NC(=O)[C@@H](Cc2ccccc2)NC(=O)[C@H](Cc2c[nH]cn2)NC1=O` [NpG-GGN1a] (X1-GG[Nle]DH[dF]RWK-NH2; lactam 4-9) came in with an inhibition constant Ki of 2.81 nM.

As usually defined, the logD is the decadic logarithm of the distribution of all forms, ionised or not, between an organic phase and buffer at a given pH. A low value points to lower lipophilicity. One may read the tissue uptake as the share of the injected amount in each gram of the tissue. For the compound `CCCC[C@H](NC(=O)CNC(=O)CNC(=O)CN1CCN(CC(=O)O)CCN(CC(=O)O)CCN(CC(=O)O)CC1)C(=O)N[C@H]1CC(=O)NCCCC[C@@H](C(N)=O)NC(=O)[C@H](Cc2c[nH]c3ccccc23)NC(=O)[C@H](CCCNC(=N)N)NC(=O)[C@@H](Cc2ccccc2)NC(=O)[C@H](Cc2c[nH]cn2)NC1=O` [[^111In]In-DOTA-GGNle-CycMSHhex, metal not drawn] ({DOTA}-GG[Nle]DH[dF]RWK-NH2; lactam 4-9), in data set [2], the logD is -3.45 ± 0.17. For the same compound, the tissue uptake dose at 3 h in data set [3] (intestine, read-out: Biodistribution of radioactivity, Intestine) was 0.6 ± 0.15 %ID; in data set [3] (stomach, read-out: Biodistribution of radioactivity, Stomach), 0.2 ± 0.04 %ID; in data set [3] (thyroid, read-out: Biodistribution of radioactivity, Thyroid), 0.01 %ID. Further, the tissue uptake at 3 h in data set [3] (tumor, 7.4 kBq/100 µL) amounted to 16.5 ± 1.89 %ID/g.

`CCCC[C@H](NC(=O)CNC(=O)CNC(=O)[C@@H](CCCNC(=N)N)NC(=O)[C@@H](CCC(=O)O)NC(=O)Cn1cc(COCC(CO)(CO)CI)nn1)C(=O)N[C@H]1CC(=O)NCCCC[C@@H](C(N)=O)NC(=O)[C@H](Cc2c[nH]c3ccccc23)NC(=O)[C@H](CCCNC(=N)N)NC(=O)[C@@H](Cc2ccccc2)NC(=O)[C@H](Cc2c[nH]cn2)NC1=O` [NpG-GGN4a] (X1-[dE][dR]GG[Nle]DH[dF]RWK-NH2; lactam 6-11) gave a Ki in data set [1] of 1.37 nM.
